From PubChem BioAssay AID504363 (Southern Research Specialized Biocontainment Screening …, 2011) come the findings set out here.

The term IC50 denotes the midpoint of a concentration-inhibition curve.

The source made the active and inactive calls.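 How the source made its calls: active means compound cutting virus infection of reporter cells by half or more at some tested dose; inactive means the rest.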 Bounds are passed on as bounds.

The assay deals with MAGI-CCR5 HeLa cells, HIV-1 IIIB, beta-gal luminescence, 48 h. The assay is described as follows: X4 HIV-1 replication inhibitors in MAGI cells, dose response, MAGI-CCR5 cells, beta-gal luminescence, 2% serum (AID 504363).
Take `CS(=O)(=O)C1=NSC2=NC(=O)/C(=C\c3cccn3-c3ccc(Cl)cc3)C(=N)N21`: the IC50 is 36.2 µM. As to `CS(=O)(=O)C1=NSC2=NC(=O)/C(=C\c3cccn3-c3ccc(Br)cc3)C(=N)N21`, the IC50 was 34.3 µM. The result for `Cc1c2c(=O)n(-c3nc4ccccc4s3)nc-2cc(O)n1Cc1ccncc1` reads 4.44 µM; that for `COc1ccccc1NS(=O)(=O)c1ccc2c(c1)C1C=CCC1C(c1ccc(C(=O)O)cc1)N2` (stereo not drawn), 3.93 µM. Then `O=C(O)c1ccc([C@@H]2Nc3ccc(S(=O)(=O)Nc4cccc5ccccc45)cc3[C@@H]3C=CC[C@@H]32)cc1`, with 11 µM; and `Cc1c2c(=O)n(-c3nc4ccccc4s3)nc-2cc(O)n1Cc1cccs1`, with 3.25 µM; and `O=C(O)CCCN1C(=O)/C(=C\c2ccc(-c3ccc(F)cc3)o2)SC1=S`, with 20.6 µM.

Take `CCc1ccc(-c2ccc(/C=C3\SC(=S)N(CCCC(=O)O)C3=O)o2)cc1`: the IC50 was 14.8 µM. Then `O=C(O)CCCN1C(=O)/C(=C\c2ccc(-c3cccc(Cl)c3)o2)SC1=S`, with 28.7 µM; and `O=C(O)c1ccc(C[n+]2c(-c3ccc([N+](=O)[O-])cc3)csc2Nc2ccccc2)cc1`, with 31.7 µM. The result for `O=C(O)c1ccc(C2Nc3ccc(S(=O)(=O)Nc4cc(Cl)ccc4Cl)cc3C3C=CCC32)cc1` (stereo not drawn) reads 15.8 µM; that for `Cc1c2c(=O)n(-c3nc4ccccc4s3)nc-2cc(O)n1Cc1ccc(F)cc1`, 2.63 µM; that for `CS(=O)(=O)C1=NSC2=NC(=O)/C(=C\c3cccn3-c3cccc(Cl)c3)C(=N)N21`, 35.7 µM.

For `Nc1sc2ccccc2[n+]1Cc1ccc(C(=O)O)cc1`, the IC50 is > 100 µM (inactive). The result for `CCOC(=O)C1=C(C)N=c2sc(=Cc3ccc(OCC(=O)O)cc3)c(=O)n2C1c1ccccc1` (stereo not drawn) reads 34.4 µM; that for `O=C(O)c1ccc(C[n+]2c(-c3ccccc3)csc2Nc2ccccc2)cc1`, 53.9 µM. Then `CCOC(=O)C1=C(C)N=c2s/c(=C\c3ccc(OCC(=O)O)cc3)c(=O)n2C1c1ccc(OC)c(OCC)c1` (stereo not drawn), with 30.4 µM. Then `O=C(O)CCC(C(=O)O)N1C(=O)/C(=C\c2ccco2)SC1=S` (stereo not drawn), with > 100 µM (inactive); and `CS(=O)(=O)C1=NSC2=NC(=O)/C(=C\c3cccn3-c3ccc(F)cc3)C(=N)N21`, with 34.9 µM. Regarding `CCOC(=O)C1=C(C)N=c2sc(=Cc3ccc(OCC(=O)O)cc3)c(=O)n2C1c1ccc(OC)cc1OC` (stereo not drawn), the IC50 was 33.7 µM. With `CCOC(=O)C1=C(C)N=c2sc(=Cc3ccc(OCC(=O)O)cc3)c(=O)n2C1c1ccc(F)cc1` (stereo not drawn), the IC50 was 29 µM.

As for `CCOC(=O)C1=C(C)N=c2sc(=Cc3ccc(OCC(=O)O)cc3)c(=O)n2C1c1ccccc1OC` (stereo not drawn), the IC50 was 34.5 µM. Then `O=C(O)CCCN1C(=O)/C(=C\c2ccc(-c3ccc(Br)cc3)o2)SC1=S`, with 37.9 µM; and `Cc1c2c(=O)n(-c3nc4ccccc4s3)nc-2cc(O)n1CCc1ccc(O)cc1`, with 4.66 µM; and `O=C(O)CCCN1C(=O)/C(=C/c2cc3ccccc3o2)SC1=S`, with 24.8 µM.

As for `O=C(O)CCCN1C(=O)/C(=C\c2ccc(-c3ccc(Cl)cc3)o2)SC1=S`, the IC50 is 15.2 µM. The result for `Cc1c2c(=O)n(-c3nc4ccccc4s3)nc-2cc(O)n1CCc1cccs1` reads 3.7 µM; that for `Cc1c2c(=O)n(-c3nc4ccccc4s3)nc-2cc(O)n1C1CC1`, 1.08 µM. Take `COc1ccc(-c2ccc(/C=C3\SC(=S)N(CCCC(=O)O)C3=O)o2)cc1`: the IC50 is 26 µM.

`COc1ccc(Cn2c(O)cc3nn(-c4nc5ccccc5s4)c(=O)c-3c2C)cc1`: the IC50 is 3.09 µM. The result for `CCOc1ccc(-n2cccc2/C=C2/C(=N)N3C(=NC2=O)SN=C3S(C)(=O)=O)cc1` reads 34.4 µM; that for `CC1=C(C(=O)OC(C)C)C(c2ccc(Cl)cc2)n2c(s/c(=C\c3ccc(OCC(=O)O)cc3)c2=O)=N1` (stereo not drawn), > 100 µM (inactive); that for `O=C(O)CCCN1C(=O)/C(=C/c2ccc(-c3ccc(Cl)c(Cl)c3)o2)SC1=S`, 19.9 µM. Then `Cc1ccc(-c2ccc(/C=C3\SC(=S)N(CCCC(=O)O)C3=O)o2)cc1`, with 20.6 µM. Then `CCc1ccc(-n2cccc2/C=C2/C(=N)N3C(=NC2=O)SN=C3S(C)(=O)=O)cc1`, with 31.9 µM; and `COc1cccc(C2C(C(=O)Nc3ccccc3)=C(C)N=c3sc(=Cc4ccc(OCC(=O)O)cc4)c(=O)n32)c1` (stereo not drawn), with 39.7 µM; and `CS(=O)(=O)C1=NSC2=NC(=O)/C(=C\c3cccn3-c3cccc(C(F)(F)F)c3)C(=N)N21`, with 34.1 µM. For `COc1ccccc1Cn1c(O)cc2nn(-c3nc4ccccc4s3)c(=O)c-2c1C`, the half-maximal inhibitory concentration (IC50) was 2.59 µM.

For the compound `Cc1ccc(-n2cccc2/C=C2/C(=N)N3C(=NC2=O)SN=C3S(C)(=O)=O)cc1`, the IC50 was 34.3 µM. Consider `CS(=O)(=O)C1=NSC2=NC(=O)/C(=C\c3cccn3-c3ccc(Cl)c(Cl)c3)C(=N)N21`, for which the IC50 was 33.7 µM.

Consider `CCOC(=O)C1=C(c2ccccc2)N=c2s/c(=C\c3ccc(OCC(=O)O)cc3)c(=O)n2C1c1cccc(OC)c1` (stereo not drawn), for which the IC50 is 10.6 µM. Consider `COc1cccc(-n2cccc2/C=C2/C(=N)N3C(=NC2=O)SN=C3S(C)(=O)=O)c1`, for which the IC50 was 31.4 µM.

Regarding `Cc1c2c(=O)n(-c3nc4ccccc4s3)nc-2cc(O)n1Cc1ccccc1Cl`, the IC50 is 4.17 µM. Then `Cc1ccc(-n2cccc2/C=C2/C(=N)N3C(=NC2=O)SN=C3S(C)(=O)=O)cc1C`, with 35.2 µM; and `O=C(O)CCCN1C(=O)/C(=C/c2ccc(-c3cccc(C(F)(F)F)c3)o2)SC1=S`, with 23.4 µM. Take `CS(=O)(=O)C1=NSC2=NC(=O)/C(=C\c3cccn3-c3cccc(F)c3)C(=N)N21`: the IC50 was 36.9 µM. The result for `CS(=O)(=O)C1=NSC2=NC(=O)/C(=C\c3cccn3-c3cc(Cl)cc(Cl)c3)C(=N)N21` reads 34.3 µM; that for `CCOC(=O)C1=C(C)N=c2s/c(=C\c3ccc(OCC(=O)O)cc3)c(=O)n2C1c1ccc(Cl)cc1` (stereo not drawn), 24.4 µM; that for `COc1ccc(CCn2c(O)cc3nn(-c4nc5ccccc5s4)c(=O)c-3c2C)cc1`, 20.5 µM. Then `Cc1c2c(=O)n(-c3nc4ccccc4s3)nc-2cc(O)n1CCC(C)C`, with 2.53 µM.

As for `COc1ccc(-n2cccc2/C=C2/C(=N)N3C(=NC2=O)SN=C3S(C)(=O)=O)cc1Cl`, the IC50 is 36.8 µM. Consider `CCOC(=O)C1=C(C)N=c2sc(=Cc3ccc(OCC(=O)O)cc3)c(=O)n2C1c1cc(OC)c(OC)c(OC)c1` (stereo not drawn), for which the concentration for half-maximal inhibition (IC50) is 91.7 µM. In the case of `Cc1c2c(=O)n(-c3nc4ccccc4s3)nc-2cc(O)n1Cc1cccnc1`, the IC50 was 2.81 µM.
